Test results taken from patent US20090298708A1, “2'-DEOXY-2'-FLUORO-BETA-D-ARABINONUCLEOSIDE 5'-TRIPHOSPHATES AND THEIR USE IN ENZYMATIC NUCLEIC ACID SYNTHESIS” (priority 2006, published 2009).

Molecular target: T1, MMLV-RT (Moloney murine leukemia virus, UniProt P03355)
T1 construct: Reverse transcriptases (RT): • MMLV-RT (MMLV or MM; source: Fermentas); purchased Fermentas
Assay: Primer extension assay with MMLV-RT
Type: biochemical
Set-up: key to Incorporation of three 2′F-araTTP / 2′F-araCTP (incorporation efficiency) / Enzymatic activity during primer extension reactions: ++++: excellent (no pausing observed); +++: very good (with slight pausing); ++: Good, full-length products with significant pausing; +: significant pausing, no full-length product but at least one 2′F-araN incorporation detected
Conditions: for Order of efficiency of incorporation: DNA template PF22 (T/U triphosphates) or PF24 (C triphosphates), three contiguous units; for Enzymatic activity during primer extension reactions: plus dATP, dGTP; for Incorporation of three 2′F-araTTP / 2′F-araCTP (incorporation efficiency): DNA template PF22 (2′F-araTTP) or PF24 (2′F-araCTP)
From the text: Primer extension assays were used to assess the incorporation of 2′F-araNTP on the various DNA templates (Table 1). The DNA primer (PF20) was first radioactively labeled at the 5′-hydroxyl terminus with a radioactive phosphorus probe and the enzyme T4 polynucleotide kinase (T4 PNK) (see Example 1 for General Methods). To assess the incorporation of 2′F-araNTPs, the primer and template were annealed, and the nucleoside 5′-triphosphates added in the presence of enzyme under the conditions specified in Table 2. Time points were obtained by analyzing small aliquots from the reaction mixture through polyacryamide gel electrophoresis (PAGE) and autoradiography.
Primer extension assays were used to assess the incorporation efficiency of contiguous 2′F-ara(T/C)TPs compared to 2′F-r(U/C)TP on a DNA template (e.g. PF22 or PF24). To this end, a DNA template (e.g. PF22: FIGS. 15, 16, 17A, 18, 21A; PF24: FIGS. 17B, 19, 20, 21B), primer and the appropriate NTPs (e.g. combination of dATP/dCTP/dGTP/ and NTP, where N=dT, 2′F-araT, 2′F-rU, or rU (FIGS. 15, 16, 17A, 18, 21A); or combination of dATP/dGTP/dTTP/ and NTP, where N=dC, 2′F-araC, 2′F-rC, or rC (FIGS. 17B, 19, 20, 21B)), were incubated in the presence one of MMLV-RT, 9N, HIV or DV polymerase. The protocols and conditions are described in Example 2 and Table 2.
Unless otherwise noticed in the Examples described below, the conditions used in the primer extension assays, such as dNTP concentration, reaction temperatures, concentration of Mg^2+, and reaction buffers (provided by the manufacturers, except for the HIV buffer which was prepared in-house) are shown in Table 2.
Primer extension assays were used to assess the incorporation of 2′F-araTTP on the DNA template (PF22). The DNA primer (PF20) was first radioactively labeled at the 5′-hydroxyl terminus with a radioactive phosphorus probe and the enzyme T4 polynucleotide kinase (T4 PNK) according to the manufacturer's specifications (MBI Fermentas Life Sciences, Burlington, ON). Incorporation of the ^32P label was accomplished in reaction mixtures consisting of DNA substrate (200 pmol), 2 μl loxreaction buffer (Buffer A for forward reaction: 500 mM Tris-HCl, pH 7.6 at 25° C., 100 mM MgCl2, 50 mM DTT, 1 mM spermidine and 1 mM EDTA), 1 μl T4 PNK enzyme solution (10 U/1 μl in a solution of 20 mM Tris-HCl, pH 7.5, 25 mM KCl, 0.1 mM EDTA, 2 mM DTT and 50% glycerol), 6 μl [γ-^32P]-ATP solution (6000 Ci/mmol, 10 mCi/ml; Amersham Biosciences, Inc.) and autoclaved sterile water to a final volume of 20 μl. The reaction mixture was incubated for about 45-60 min at 37° C., followed by a second incubation for 10 min at 95° C. to heat denature and deactivate the kinase enzyme. The solution was purified according to a standard protocol and the isolated yield of 5′-^32P-DNA following gel extraction averages 50%. The pure labeled samples were kept at −20° C. for future use.
Usually 2 or 3 folds of cold (unlabeled) DNA primer were combined with the radioactive primer. Then primer to template was mixed together with the final concentration at 85 nM for the primer and 255 nM for the template (i.e. the primer:template=1:3 molar ratio). The primer and template were heated at 95° C. for 5 min and annealed at 4° C. for at least two hours before use. In an Eppendorf tube, the following reagents, 5× or 10× buffer, nucleoside 5′-triphosphates (DATP, dGTP, dCTP, 2′F-araTTP at the same concentrations; see legend of FIG. 2), water, the primer and template mixture, were added together according to pre-calculated reaction volume (20 μL) and concentrations (see reaction conditions in Table 2). Mineral oil (20 μL) was usually used to prevent evaporation. The reaction mixture was incubated at either 37° C. or 55° C. and one of the various enzymes tested was added to initiate the primer extension reactions. […]

Compound | Order of efficiency of incorporation (MMLV-RT, 37° C.) | Incorporation of three 2′F-araTTP / 2′F-araCTP (incorporation efficiency) (MMLV, 37° C.) | other results
Cc1cn([C@H]2C[C@H](O)[C@@H](COP(=O)(O)OP(=O)(O)OP(=O)(O)O)O2)c(=O)[nH]c1=O [dTTP, reference compound] | dTTP > 2′F-araTTP > 2′F-rUTP > UTP |  | 
O=c1ccn([C@@H]2O[C@H](COP(=O)(O)OP(=O)(O)OP(=O)(O)O)[C@@H](O)[C@H]2F)c(=O)[nH]1 [2′F-rUTP, 1-(2-deoxy-2-fluoro-β-D-ribo-furanosyl)uracil 5′-triphosphate, reference compound] | dTTP > 2′F-araTTP > 2′F-rUTP > UTP |  | 
Cc1cn([C@@H]2O[C@H](COP(=O)(O)OP(=O)(O)OP(=O)(O)O)[C@@H](O)[C@@H]2F)c(=O)[nH]c1=O [2′F-araTTP, 1-(2-deoxy-2-fluoro-β-D-arabino-furanosyl)thymine 5′-triphosphate] | dTTP > 2′F-araTTP > 2′F-rUTP > UTP | +++ | Enzymatic activity during primer extension reactions (Example 2, DNA template PF22, 3x 2′F-araTTP, dCTP, MMLV, 37° C.): +++; substrate property for MMLV (second incorporations of modified triphosphates) (MMLV, DNA template PF22, compared to 2′F-rUTP and rUTP): best substrate
Nc1ccn([C@@H]2O[C@H](COP(=O)(O)OP(=O)(O)OP(=O)(O)O)[C@@H](O)[C@H]2F)c(=O)n1 [2′F-rCTP, 1-(2-deoxy-2-fluoro-β-D-ribofuranosyl) cytosine 5′-triphosphate, reference compound] | dCTP~2′F-rCTP ≧ 2′F-araCTP > CTP |  | full-length product (MMLV-RT, DNA template PF24, 37° C.): ~100%
Nc1ccn([C@@H]2O[C@H](COP(=O)(O)OP(=O)(O)OP(=O)(O)O)[C@@H](O)[C@@H]2F)c(=O)n1 [2′F-araCTP, 1-(2-deoxy-2-fluoro-β-D-arabinofuranosyl)cytosine 5′-triphosphate] | dCTP~2′F-rCTP ≧ 2′F-araCTP > CTP | ++++ | Enzymatic activity during primer extension reactions (Example 3, DNA template PF24, 3x 2′F-araCTP, dTTP, MMLV, 37° C.): +++; premature products (MMLV-RT, DNA template PF24, after 60 mins, 37° C.): ca. 90%
Nc1ccn([C@H]2C[C@H](O)[C@@H](COP(=O)(O)OP(=O)(O)OP(=O)(O)O)O2)c(=O)n1 [dCTP] | dCTP~2′F-rCTP ≧ 2′F-araCTP > CTP |  | 
